In article PMC11625190 (Synthetic and Systems Biotechnology, 2024):

System: ChAER1
Test: HPLC quantification of 4-hydroxydihydrocinnamaldehyde formation, crude enzyme
Assay type: biochemical, Cephalotaxus harringtonia
Details: 1 mM NADPH, 50 mM Tris-HCl pH 7.5, 30 °C, 1 h

Km: 467 µM
SMILES: O=C/C=C/c1ccc(O)cc1 [p-coumaraldehyde]
